According to patent US6528049B2, “Bisexual attractants, aggregants and arrestants for adults and larvae of codling moth and other species of lepidoptera” (Trece, Inc., priority 1999, dated 2003):

Key:
Format in all cases: in vivo, Cydia pomonella
codling moth [1] = test: Inherent attractancy field test of HPV blends in baited sticky traps in walnut orchard; conditions: walnut orchard, blends 10 mg/white septa, ethyl (2E,4Z)-2,4-decadienoate 5 mg
Method: The blends listed in Table 2 were then field tested in walnut orchards for their attractancy to male and female codling moths, and also for enhancement with synthetic codling moth pheromone and other additives identified above. Their total capture (both males and females), and their individual male and female capture were determined and results obtained, were compared to insect capture obtained with purified individual ester, compound #25 namely ethyl (2E,4Z)-2,4-decadienoate, and to the codling moth male sex pheromone compound #26 in Table 3.
Individual blends containing representative aldehyde, alcohol, ester, monoterpene or sesquiterpene blends were provided in the traps in 10 mg/white septa.
Individual host-plant volatile (HPV) blends identified by the #1-23 in Table 3 were tested for codling moth attractancy in a walnut orchard, and the results were compared to the isolated purified ethyl (2E,4Z)-2,4-decadienoate (#25), to pheromone (#26) and to solvent controls (#24).
Twenty-five HPV blends and eight individual compounds were field tested. One synthetic blend, “ester blend #10,” elicited excellent codling moth attraction. In field tests, the other tested blends (see Table 3) and compounds captured no moths over a three month period, except for an “apple-skin surface extract” (Golden Delicious, ether solvent) (Σ=3 codling moth captured, 1♂: 2♀♀) and the individual compound, (E,E)-α-farnesene (Σ=1♂ codling moth captured). The field tests are presented in Table 3 and show attraction specificity for HPV ester blend #10.
Sticky traps (ICP and IIB traps, Trécé, Inc. Salinas, Calif.) were baited with either extracts, blends of HPVs, or individual HPVs (>95% purity) that evaporated from impregnated rubber septa. HPV blends, or individual HPV compounds, were diluted in hexane and pipetted onto rubber septa at approximate doses of 10 mg/septum. A single treatment septum was placed in each sticky wing-trap, and hung approximately six meters high in the outer walnut canopy. Trap liners and treatment HPV septa were replaced every 10-14 days and pheromone septa every month and tests were conducted throughout two summers.
A replicated series of different HPV treatment traps, control “blank” (unbaited) trap, and a commercial pheromone-baited trap (Trécé, Inc.) were distributed 5 trees apart throughout two distant Hartley walnut orchards and validated in 12 walnut orchards. The orchards were distinct, with one using three summer insecticide sprays and the other had no spraying. Thus, these test orchards had low vs. moderate relative populations of codling moths. Significant effects on the gender of codling moths captured were judged by paired tests, either T-test or a nonparametric test.

codling moth [2] = test: Trap capture with proportional mixes of ethyl 2,4-decadienoate isomers; conditions: 1 mg dose/gray septum
Method: Additionally, studies were performed to determine the attraction of codling moth to proportional mixes of (2E,4Z) and (2E,4E) isomers of ethyl 2,4-decadienoate and highly purified samples of each. Traps were baited with 1 mg dose/gray septum.

codling moth [3] = test: Sticky traps baited with the single compound or pheromone
From the text: FIG. 5 illustrates mean attraction of female and male codling moths to sticky traps baited with a single host plant volatile, ethyl (2E,4Z)-2,4-decadienoate. The attraction was followed over a two month period.

[4] = tested on: first-instar or neonate larval worms of the codling moth; test: Dual-choice larval orientation bioassay in petri dishes
Method: Behavioral orientation responses in the laboratory of first-instar or neonate larval worms of the codling moth are seen in Table 16. Data shown in Table 16 represents means of to 50 bioassay replications using five neonates per experiment conducted in small areas (10 cm diameter petri dishes). Experiments were dual-choice tests, where the released neonate larvae crawled and made perceptual choices between two small (one cm diameter) filter paper discs, with one disk treated with 1 ug or 10 ug of ethyl (2E,4Z) decadienoate and the other disc treated with an equivalent volume of solvent (methylene chloride).

codling moth [5] = test: Field study of individual alcohols, aldehydes and esters; conditions: individual compounds typically of purity 90-98%
From the text: Attractive activity of these compounds for male and female codling moth was compared to purified ethyl (2E,4Z)-2,4-decadienoate.
When the cumulative evaluation of all studied compounds and/or blends containing aldehyde, alcohol, ester and terpene compounds was made, the following results clearly confirmed the findings seen in Table 3.

codling moths = test: Effect of sample purity on trap capture
Method: Additional purification procedures were conducted to show the differences and superiority of purified pear and apple volatiles over commercially available products. For that purpose, extracts were purified from commercially available compounds, typically available in only about 80-85% purity, to a purity between 90-100%, preferably over 98% purity. As the purity of the sample of ethyl (2E,4Z)-2,4-decadienoate increased so also did its attractancy to codling moths. For example, the mean captures (±SEM) were 4.5 (±2.0) for an 86% pure sample, 6.5 (±4.4) for a 93.6% pure sample and 9.3 (±3.2) for 98.8% pure sample.

codling moth [6] = test: Trap capture in a pheromone mating disruption treated walnut orchard; conditions: 10 mg/lure, FIG. 6
Method: FIG. 6 illustrates total capture of codling moth males and females, in a mating disruption treated orchard by using pheromone lures (-▴-) and by using lures containing ethyl (2E,4Z)-2,4-decadienoate (-♦-) (10 mg/lure)

codling moth [7] = test: Low loading dose response trap study (FIG. 13); conditions: loading doses 0.1 μg to 10 mg in grey septa
Method: In this study, both males (-Δ-) and females (-□-) responded to a threshold dose of less than 10 μg of the ester attractant, while at progressively higher loading rates females were more responsive than males.

[8] = Table 15, sticky trap, 3 traps, 43 trap checks (pheromone: 1 trap, 19 trap checks)
[9] = five neonates per experiment, disc with 1 ug or 10 ug vs solvent disc

With `CCCCC/C=C\C=C\C(=O)OCC` [Ethyl (2E,4Z)-2,4-Decadienoate, ethyl (2E,4Z)-2,4-decadienoate] the “FEMALE CM Captured with HPV; ♀♀/trap night ± SEM” value (codling moth [1]) was 2.04 ± 0.85 ♀♀/trap night, the “MALE CM Captured with HPV; ♂♂/trap/night ± SEM” value (codling moth [1]) was 1.42 ± 0.59 ♂♂/trap/night and the “Total CM Captured with HPV: (CM/trap/night ± SEM)” value (codling moth [1]) was 3.46 ± 1.44 CM/trap/night. For the same compound, the “Total CM Captured with HPV: (CM/trap/night ± SEM)” value (codling moth [1]; listed as #25) was 3.46 CM/trap/night, the “Female CM Captured ♀♀/trap/night ± SEM” value (codling moth [2]) was 0.76 ± 0.10 ♀♀/trap/night and the “MALE CM Captured: ♂♂/trap/night ± SEM” value (codling moth [2]) was 0.62 ± 0.29 ♂♂/trap/night. For the same compound, the “Total CM Captured: CM/trap ± SEM” value (codling moth [2]) was 1.38 ± 0.37 CM/trap, the “Female Capture: Sum:” value (codling moth [3]; Table 15, sticky trap) was 76.4 Moths/Trap/Night and the “Male Capture: Sum:” value (codling moth [3]; Table 15, sticky trap) was 24.9 Moths/Trap/Night. For the same compound, the “Female Capture: Mean ± SEM” value (codling moth [3]; [8]) was 1.78 ± 0.45 Moths/Trap/Night, the “Male Capture: Mean ± SEM” value (codling moth [3]; [8]) was 0.58 ± 0.12 Moths/Trap/Night and the “attractiveness relative to pheromone” value (codling moth [3]; sticky traps, two month period) was “approximately 48%”. For the same compound, the “Arrestment; average time (sec) on or under disc:” value ([4]; 1 ug dose of attractant) was 19.7 ± 5.6 s, the “Arrestment; average time (sec) on or under disc:” value ([4]; 10 ug dose of attractant) was 33.0 ± 10.7 s and the “Attraction; average number of neonates contacting disc: x ± SEM” value [4, 9] was 4.5 ± 0.9. The “Latency: average time (sec) to first arrive at disc: x ± SEM” value [4, 9] was 74.5 ± 16.1 s, the “attractancy to male and female codling moth (in words)” value (codling moth [5]) was “most active” and the “mean captures (±SEM)” value (codling moths; 86% pure sample) was 4.5 (±2.0). For the same compound, the “mean captures (±SEM)” value (codling moths; 93.6% pure sample) was 6.5 (±4.4), the “mean captures (±SEM)” value (codling moths; 98.8% pure sample) was 9.3 (±3.2) and the “number of codling moths captured relative to lures with pheromone only” value (codling moth [6]) was “more than double”. The “threshold dose to which males and females responded” value (codling moth [7]) was “less than 10 μg”.
